Test results reported in patent publication US11149022B2, “Antagonists of the muscarinic acetylcholine receptor M4” (Vanderbilt University, priority 2017, dated 2021).

Molecular target: T1, Human M4 (Homo sapiens, UniProt P08173)
T1 construct: expressed in transfected cells; host or cells: CHO-K1 (ATCC), stably co-expressing chimeric G protein Gqi5
T1 sequence (P08173 1-479): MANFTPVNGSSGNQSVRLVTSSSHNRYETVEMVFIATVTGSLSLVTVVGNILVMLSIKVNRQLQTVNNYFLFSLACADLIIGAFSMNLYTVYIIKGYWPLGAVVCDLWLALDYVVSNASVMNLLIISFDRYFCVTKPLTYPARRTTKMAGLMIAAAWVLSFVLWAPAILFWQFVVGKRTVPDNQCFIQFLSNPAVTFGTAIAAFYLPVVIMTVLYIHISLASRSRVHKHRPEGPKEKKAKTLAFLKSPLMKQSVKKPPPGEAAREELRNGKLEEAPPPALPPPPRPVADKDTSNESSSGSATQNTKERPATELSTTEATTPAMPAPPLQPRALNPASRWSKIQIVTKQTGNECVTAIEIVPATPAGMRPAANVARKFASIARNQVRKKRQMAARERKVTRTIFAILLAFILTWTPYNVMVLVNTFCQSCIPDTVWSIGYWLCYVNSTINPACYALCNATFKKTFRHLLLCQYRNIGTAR
Experiment: mAChR M4 cell-based functional assay (calcium flux, antagonist mode)
Conditions: for remaining activity at 30 µM: % ACh maximum at 30 μM, read-out: Emin; for IC50: M4/Gqi5/CHO-K1 cells, concentration-dependent decrease of the EC80 acetylcholine response
Description: Human or rat M4 cDNA, along with the chimeric G protein Gqi5, were transfected into Chinese hamster ovary (CHO-K1) cells purchased from the American Type Culture Collection using Lipofectamine2000. M4/Gqi5/CHO cells were grown in Ham's F-12 medium containing 10% heat-inactivated fetal bovine serum (FBS), 20 mM HEPES, 500 μg/mL G418 sulfate, and 200 μg/mL Hygromycin B.
For high throughput measurement of agonist-evoked increases in intracellular calcium, CHO-K1 cells stably expressing muscarinic receptors were plated in growth medium lacking G418 and hygromycin at 15,000 cells/20 μL/well in Greiner 384-well black-walled, tissue culture (TC)-treated, clear-bottom plates (VWR). Cells were incubated overnight at 37° C. and 5% CO2. The next day, cells were washed using an ELX 405 (BioTek) with assay buffer; the final volume was then aspirated to 20 μL, Next, 20 μL of a 2.3 μM stock of Fluo-4/acetoxymethyl ester (Invitrogen, Carlsbad, Calif.), prepared as a 2.3 μM stock in DMSO, mixed in a 1:1 ratio with 10% (w/v) Pluronic F-127 and diluted in assay buffer, was added to the wells and the cell plates were incubated for 50 min at 37° C. and 5% CO2. Dye was removed by washing with the ELX 405 and the final volume was aspirated to […]. Compound master plates were formatted in a 10 point concentration-response curve (CRC) format (1:3 dilutions) in 100% DMSO with a starting concentration of 10 or 1 mM using a BRAVO liquid handler (Agilent). Test compound CRCs were then transferred to daughter plates (240 nL) using the Echo acoustic plate reformatter (Labcyte, Sunnyvale, Calif.) and then diluted into assay buffer (40 μL) to a 2× stock using a Thermo Fisher Combi (Thermo Fisher Scientific, Waltham, Mass.).
Calcium flux was measured using the Functional Drug Screening System (FDSS) 6000 or 7000 (Hamamatsu Corporation, Tokyo, Japan) as an increase in the fluorescent static ratio. Compounds were applied to cells (20 μL, 2×) using the automated system of the FDSS at 2 seconds into the protocol and the data were collected at 1 Hz. At 143 s, 10 μL of an EC20 concentration of the muscarinic receptor agonist acetylcholine was added (5×), followed by the addition of 12 μL of an EC80 concentration of acetylcholine at the 268 s time point (5×). Agonist activity was analyzed as a concentration-dependent increase in calcium mobilization upon compound addition. Positive allosteric modulator activity was analyzed as a concentration-dependent increase in the EC20 acetylcholine response. Antagonist activity was analyzed as a concentration-dependent decrease in the EC80 acetylcholine response; for the purposes of the tables herein, an […] (inhibitory concentration 50) was calculated as a concentration-dependent decrease of the response elicited by an EC80 concentration of acetylcholine. Concentration-response curves were generated using a four-parameter logistical equation in XLFit curve fitting software (IDBS, Bridgewater, N.J.) for Excel (Microsoft, Redmond, Wash.) or Prism (GraphPad Software, Inc., San Diego, Calif.) or the Dotmatics software platform (Dotmatics, Bishop's Stortford, UK).
Compounds were synthesized as described above. Activity (IC50 and Emin) was determined in the mAChR M4 cell-based functional assay as described above and the data are shown in Table 4.

Row | remaining activity at 30 µM [%] | IC50 [µM] | Structure (SMILES)
1 | 4.43 | 0.63 | Cc1nn(C)cc1-c1ccc(OC2CC3(CCN(CC4CCCCC4)CC3)C2)nn1 [Compound 26, 7-(cyclohexylmethyl)-2-[6-(1,3-dimethylpyrazol-4-yl)pyridazin-3-yl]oxy-7-azaspiro[3.5]nonane]
2 | 5.55 | 1.77 | Fc1ccc(Cl)c(-c2ccc(OC3CC4(CCN(CC5CCCOC5)CC4)C3)nn2)c1 (stereo not shown) [Compound 20, 2-[6-(2-chloro-5-fluoro-phenyl)pyridazin-3-yl]oxy-7-(tetrahydropyran-3-ylmethyl)-7-azaspiro[3.5]nonane]
3 | 17.1 | 5.81 | Cc1nn(C)cc1-c1ccc(OC2CC3(CCN(CC4CCCOC4)CC3)C2)nn1 (stereo not shown) [Compound 28, 2-[6-(1,3-dimethylpyrazol-4-yl)pyridazin-3-yl]oxy-7-(tetrahydropyran-3-ylmethyl)-7-azaspiro[3.5]nonane]
4 | 11.6 | 4.43 | Cc1nn(C)cc1-c1ccc(OC2CC3(CCN(CC4CCOCC4)CC3)C2)nn1 [Compound 27, 2-[6-(1,3-dimethylpyrazol-4-yl)pyridazin-3-yl]oxy-7-(tetrahydropyran-4-ylmethyl)-7-azaspiro[3.5]nonane]

The remaining lines, values behind:

Row | Structure (SMILES) | remaining activity at 30 µM [%] | IC50 [µM]
5 | Cc1cnn(C)c1-c1ccc(OC2CC3(CCN(CC(C)C(C)(C)C)CC3)C2)nn1 (stereo not shown) [Compound 33, 2-[6-(2,4-dimethylpyrazol-3-yl)pyridazin-3-yl]oxy-7-(2,3,3-trimethylbutyl)-7-azaspiro[3.5]nonane] | 3.87 | 0.25
6 | Fc1ccc(Cl)c(-c2ccc(OC3CC4(CCN(Cc5ccccc5)CC4)C3)nn2)c1 [Compound 22, 7-benzyl-2-[6-(2-chloro-5-fluoro-phenyl)pyridazin-3-yl]oxy-7-azaspiro[3.5]nonane] | 3.34 | 1.27
7 | Cc1nn(C)cc1-c1ccc(NC2CC3(CCN(CCC(C)(C)C)CC3)C2)nn1 [Compound 1, 7-(3,3-Dimethylbutyl)-N-[6-(1,3-dimethylpyrazol-4-yl)pyridazin-3-yl]-7-azaspiro[3.5]nonan-2-amine] | 3.48 | 
8 | Cc1cnn(C)c1-c1ccc(OC2CC3(CCN(CC4CCCCC4)CC3)C2)nn1 [Compound 34, 7-(cyclohexylmethyl)-2-[6-(2,4-dimethylpyrazol-3-yl)pyridazin-3-yl]oxy-7-azaspiro[3.5]nonane] | 4.38 | 0.85
9 | Cc1nn(C)cc1-c1ccc(NCC2CC3(CCN(Cc4ccccn4)CC3)C2)nn1 [Compound 55, 6-(1,3-dimethylpyrazol-4-yl)-N-[[7-(2-pyridylmethyl)-7-azaspiro[3.5]nonan-2-yl]methyl]pyridazin-3-amine] | 34.3 | > 10
10 | Fc1ccc(Cl)c(-c2ccc(OCC3CC4(CCN(CC5CC6C=CC5C6)CC4)C3)nn2)c1 (stereo not shown) [Compound 61, 7-(5-bicyclo[2.2.1]hept-2-enylmethyl)-2-[[6-(2-chloro-5-fluoro-phenyl)pyridazin-3-yl]oxymethyl]-7-azaspiro[3.5]nonane] | 3.96 | 0.25
11 | Cc1nn(C)cc1-c1ccc(OC2CC3(CCN(CC4CC5C=CC4C5)CC3)C2)nn1 (stereo not shown) [Compound 24, 7-(5-bicyclo[2,2.1]hept-2-enylmethyl)-2-[6-(1,3-dimethylpyrazol-4-yl)pyridazin-3-yl]oxy-7-azaspiro[3.5]nonane] | 2.76 | 0.11
12 | Cc1nn(C)cc1-c1ccc(NC2CC3(CCN(CC(C)C(C)(C)C)CC3)C2)nn1 (stereo not shown) [Compound 4, N-[6-(1,3-dimethylpyrazol-4-yl)pyridazin-3-yl]-7-(2,3,3-trjmethylbutyl)-7-azaspiro[3.5]nonan-2-amine] | 4.05 | 1.02
13 | Fc1ccc(Cl)c(-c2ccc(NCC3CC4(CCN(CC5CCOCC5)CC4)C3)nn2)c1 [Compound 44, 6-(2-chloro-5-fluoro-phenyl)-N-[[7-(tetrahydropyran-4-ylmethyl)-7-azaspiro[3.5]nonan-2-yl]methyl]pyridazin-3-amine] | 4.66 | 0.73
